IC50 data for 31 compounds are collected here from patent US12447153B2, “HER2 mutation inhibitors” (Array BioPharma Inc., priority 2021, dated 2025).

Test [1] concerns the target ErbB2 WT (Homo sapiens (Human), UniProt P04626). The test is described as follows: ErbB Enzyme Assay (HTRF KinEASE-TK), Assay 2. Format: biochemical. For orientation: Time-resolved FRET reads energy transfer from a long-lived donor to a nearby acceptor.
Test [2] has as its target EGFR (Homo sapiens (Human), UniProt P00533). The test is described as follows: ErbB Enzyme Assay (HTRF KinEASE-TK), Assay 3. Format: biochemical.
The target in test [3] is ErbB2 with Exon 20 YVMA insertion (HER2-YVMA) (Homo sapiens (Human), UniProt P04626, INS775YVMA). The test is described as follows: Cellular Phosphorylation Assay, Assay 4 (constitutive ErbB2 phosphorylation, NIH 3T3 cells). Format: cell-based.
Test [4] has as its target EGFR wild type (EGFR WT) (Homo sapiens (Human), UniProt P00533). As to the kind of experiment: Cellular Phosphorylation Assay, Assay 5 (EGF-stimulated EGFR phosphorylation, NIH 3T3 cells). Format: cell-based.
The mark [5] stands for this setting: EGF-stimulated EGFR WT phosphorylation.
Where [6] appears, read: cellular ErbB2 YVMA phosphorylation.
The mark [7] stands for this setting: cellular EGFR WT phosphorylation, EGF-stimulated.

Sequence of EGFR (P00533 25-1210): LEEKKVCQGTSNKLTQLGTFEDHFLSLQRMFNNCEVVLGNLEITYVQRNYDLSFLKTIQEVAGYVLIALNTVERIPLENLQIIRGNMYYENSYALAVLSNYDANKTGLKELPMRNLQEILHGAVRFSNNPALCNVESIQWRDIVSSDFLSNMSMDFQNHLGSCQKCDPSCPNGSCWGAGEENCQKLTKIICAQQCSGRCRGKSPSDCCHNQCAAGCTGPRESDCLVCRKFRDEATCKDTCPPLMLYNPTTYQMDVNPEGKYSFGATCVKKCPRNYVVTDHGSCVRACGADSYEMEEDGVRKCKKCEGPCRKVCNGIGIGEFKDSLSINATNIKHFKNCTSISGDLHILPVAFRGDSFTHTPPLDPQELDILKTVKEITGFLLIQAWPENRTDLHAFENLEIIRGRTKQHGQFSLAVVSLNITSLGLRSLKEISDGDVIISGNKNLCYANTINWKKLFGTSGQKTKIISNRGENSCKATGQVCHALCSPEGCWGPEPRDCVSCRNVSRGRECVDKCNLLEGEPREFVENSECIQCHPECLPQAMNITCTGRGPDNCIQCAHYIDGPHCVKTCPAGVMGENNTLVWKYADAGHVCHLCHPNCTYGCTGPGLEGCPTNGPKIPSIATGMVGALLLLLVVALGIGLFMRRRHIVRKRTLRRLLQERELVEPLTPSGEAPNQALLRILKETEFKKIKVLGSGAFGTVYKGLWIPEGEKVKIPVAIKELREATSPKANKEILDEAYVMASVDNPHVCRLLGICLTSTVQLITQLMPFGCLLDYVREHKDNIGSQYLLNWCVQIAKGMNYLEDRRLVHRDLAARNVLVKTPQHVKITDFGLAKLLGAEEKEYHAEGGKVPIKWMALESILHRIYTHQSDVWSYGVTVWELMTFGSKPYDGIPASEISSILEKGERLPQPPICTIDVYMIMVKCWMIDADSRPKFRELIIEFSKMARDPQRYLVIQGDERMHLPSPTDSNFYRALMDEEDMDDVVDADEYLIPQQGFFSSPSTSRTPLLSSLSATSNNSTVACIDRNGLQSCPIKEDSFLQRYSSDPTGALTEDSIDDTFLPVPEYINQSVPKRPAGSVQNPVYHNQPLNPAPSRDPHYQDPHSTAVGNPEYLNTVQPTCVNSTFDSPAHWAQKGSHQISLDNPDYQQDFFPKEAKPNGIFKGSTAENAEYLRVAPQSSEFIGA
Sequence of EGFR wild type (EGFR WT) (P00533 25-1210): as above
Sequence of ErbB2 with Exon 20 YVMA insertion (HER2-YVMA) (P04626 other isoform, or with tags, fused parts or gaps ins YVMA behind 775): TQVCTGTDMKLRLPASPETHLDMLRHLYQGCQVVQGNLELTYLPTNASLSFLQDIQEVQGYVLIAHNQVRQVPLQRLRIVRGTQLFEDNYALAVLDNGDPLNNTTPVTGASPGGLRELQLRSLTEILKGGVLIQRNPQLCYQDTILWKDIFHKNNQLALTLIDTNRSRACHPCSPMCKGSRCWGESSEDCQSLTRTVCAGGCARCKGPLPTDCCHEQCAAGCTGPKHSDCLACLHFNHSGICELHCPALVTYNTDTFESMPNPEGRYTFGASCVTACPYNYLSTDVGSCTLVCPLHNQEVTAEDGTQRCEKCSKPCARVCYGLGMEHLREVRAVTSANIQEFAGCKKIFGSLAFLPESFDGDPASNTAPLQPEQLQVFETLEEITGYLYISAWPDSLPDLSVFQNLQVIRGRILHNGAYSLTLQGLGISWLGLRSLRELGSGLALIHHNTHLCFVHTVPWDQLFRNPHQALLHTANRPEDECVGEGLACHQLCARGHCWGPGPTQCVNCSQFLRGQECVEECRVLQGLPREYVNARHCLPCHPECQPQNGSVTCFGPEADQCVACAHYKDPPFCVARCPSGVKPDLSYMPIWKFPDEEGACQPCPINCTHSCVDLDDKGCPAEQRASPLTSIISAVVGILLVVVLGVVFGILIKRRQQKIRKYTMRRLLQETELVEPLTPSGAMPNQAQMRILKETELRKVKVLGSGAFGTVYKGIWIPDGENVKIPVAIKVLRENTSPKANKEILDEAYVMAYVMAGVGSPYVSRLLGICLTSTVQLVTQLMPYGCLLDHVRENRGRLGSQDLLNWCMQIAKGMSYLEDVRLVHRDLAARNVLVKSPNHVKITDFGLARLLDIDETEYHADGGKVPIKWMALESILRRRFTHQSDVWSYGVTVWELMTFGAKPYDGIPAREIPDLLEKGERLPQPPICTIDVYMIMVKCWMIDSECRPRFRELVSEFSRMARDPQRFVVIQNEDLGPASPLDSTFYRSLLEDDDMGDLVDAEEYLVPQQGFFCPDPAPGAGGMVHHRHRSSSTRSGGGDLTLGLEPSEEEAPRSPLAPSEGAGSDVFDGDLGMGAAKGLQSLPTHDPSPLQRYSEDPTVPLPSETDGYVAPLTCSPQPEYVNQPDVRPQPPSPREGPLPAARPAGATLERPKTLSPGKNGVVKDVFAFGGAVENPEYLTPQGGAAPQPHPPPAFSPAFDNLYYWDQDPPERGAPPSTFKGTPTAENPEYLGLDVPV
Sequence of ErbB2 WT (P04626 23-1255): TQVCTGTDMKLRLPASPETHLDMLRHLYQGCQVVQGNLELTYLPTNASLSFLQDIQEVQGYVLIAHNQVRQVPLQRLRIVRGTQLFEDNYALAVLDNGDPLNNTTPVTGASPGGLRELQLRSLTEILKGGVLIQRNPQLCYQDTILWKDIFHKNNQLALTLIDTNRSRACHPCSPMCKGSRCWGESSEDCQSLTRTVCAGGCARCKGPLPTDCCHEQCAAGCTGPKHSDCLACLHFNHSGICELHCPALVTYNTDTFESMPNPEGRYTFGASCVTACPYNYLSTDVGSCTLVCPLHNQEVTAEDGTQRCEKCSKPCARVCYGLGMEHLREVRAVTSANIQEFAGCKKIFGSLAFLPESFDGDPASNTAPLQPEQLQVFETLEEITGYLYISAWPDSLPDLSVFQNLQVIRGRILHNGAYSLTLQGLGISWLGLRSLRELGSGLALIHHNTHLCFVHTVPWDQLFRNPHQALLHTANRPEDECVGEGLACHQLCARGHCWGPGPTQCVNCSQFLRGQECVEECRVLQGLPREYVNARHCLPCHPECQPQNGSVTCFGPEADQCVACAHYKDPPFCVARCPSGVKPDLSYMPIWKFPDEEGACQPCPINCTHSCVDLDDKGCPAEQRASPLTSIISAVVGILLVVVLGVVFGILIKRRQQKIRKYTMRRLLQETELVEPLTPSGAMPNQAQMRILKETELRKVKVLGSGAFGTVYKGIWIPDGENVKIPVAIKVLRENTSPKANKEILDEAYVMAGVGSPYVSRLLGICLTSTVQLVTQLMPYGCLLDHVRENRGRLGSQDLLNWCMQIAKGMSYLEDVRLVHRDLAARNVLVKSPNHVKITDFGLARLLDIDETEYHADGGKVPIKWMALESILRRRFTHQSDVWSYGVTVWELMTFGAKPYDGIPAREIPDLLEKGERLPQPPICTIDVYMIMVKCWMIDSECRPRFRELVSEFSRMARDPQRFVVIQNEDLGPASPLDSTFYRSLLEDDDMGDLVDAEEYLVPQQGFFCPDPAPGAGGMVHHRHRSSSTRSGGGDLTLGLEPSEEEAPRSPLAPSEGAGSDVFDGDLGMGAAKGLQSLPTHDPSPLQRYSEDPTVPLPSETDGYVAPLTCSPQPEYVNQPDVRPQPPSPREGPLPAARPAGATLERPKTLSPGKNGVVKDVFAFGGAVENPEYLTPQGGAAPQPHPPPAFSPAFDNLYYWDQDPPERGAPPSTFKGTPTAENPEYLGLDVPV

Broadly, the IC50 is the concentration needed to halve the response being measured. Low values mean greater potency, high ones weaker potency. Turning to `C=CC(=O)N1C2CC1CN(c1ccc3ncnc(Nc4cc(Cl)c(Oc5cnc6c(c5)ncn6C)cc4F)c3n1)C2` [Example 241, 1-(3-(4-((5-chloro-2-fluoro-4-((3-methyl-3H-imidazo[4,5-b]pyridin-6-yl)oxy)phenyl)amino)pyrido[3,2-d]pyrimidin-6-yl)-3,6-diazabicyclo[3.1.1]heptan-6-yl)prop-2-en-1-one], the concentration for half-maximal inhibition (IC50) is 354 nM in test [1] (ErbB2 WT enzyme), no less than 10000 nM in test [2] (EGFR enzyme), 22.2 nM in test [3] (ErbB2 YVMA phosphorylation) and no less than 5000 nM in test [4] (setting [5]).
For `C=CC(=O)N1CCN(c2ccc3ncnc(Nc4ccc(Oc5ccn6ncnc6c5)c(C(F)(F)F)c4)c3n2)CC1(C)C` [Example 242, 1-(4-(4-((4-([1,2,4]triazolo[1,5-a]pyridin-7-yloxy)-3-(trifluoromethyl)phenyl)amino)pyrido[3,2-d]pyrimidin-6-yl)-2,2-dimethylpiperazin-1-yl)prop-2-en-1-one] the same measures were 184 nM, 4430 nM, 95.6 nM and 3460 nM.
As for `C=CC(=O)N1CCN(c2ccc3ncnc(Nc4ccc(Oc5ccc6scnc6c5)c(C)c4F)c3n2)CC1(C)C` [Example 243, 1-(4-(4-((4-(benzo[d]thiazol-5-yloxy)-2-fluoro-3-methylphenyl)amino)pyrido[3,2-d]pyrimidin-6-yl)-2,2-dimethylpiperazin-1-yl)prop-2-en-1-one], the IC50 in test [1] (ErbB2 WT enzyme) was 338 nM; in test [2] (EGFR enzyme) it was 1210 nM; in test [3] (ErbB2 YVMA phosphorylation), 50.2 nM; in test [4] (setting [5]), 666 nM.
The corresponding values for `C=CC(=O)N1CC2CCC(C1)N2c1ccc2ncnc(Nc3ccc(Oc4cnc5c(c4)ncn5C)c(C)c3F)c2n1` [Example 244, 1-(8-(4-((2-fluoro-3-methyl-4-((3-methyl-3H-imidazo[4,5-b]pyridin-6-yl)oxy)phenyl)amino)pyrido[3,2-d]pyrimidin-6-yl)-3,8-diazabicyclo[3.2.1]octan-3-yl)prop-2-en-1-one] are 46.4 nM, 178 nM, 16.7 nM and 317 nM.
Turning to `C=CC(=O)N1CCN(c2ccc3ncnc(Nc4ccc(Oc5cnc6c(c5)ncn6C)c(C)c4)c3n2)CC1(C)C` [Example 250], the half-maximal inhibitory concentration (IC50) is 27.9 nM in test [1] (ErbB2 WT enzyme assay), 4120 nM in test [2] (EGFR enzyme assay), 9 nM in test [3] (setting [6]) and 3200 nM in test [4] (setting [7]).
As for `C=CC(=O)N1CCN(c2ccc3ncnc(Nc4ccc(Oc5ccc6c(c5)ncn6C)c(C)c4F)c3n2)C[C@H]1C(C)C` [Example 253], the IC50 in test [1] (ErbB2 WT enzyme assay) was 162 nM; in test [2] (EGFR enzyme assay), no less than 10000 nM; in test [3] (setting [6]) it was 31 nM; in test [4] (setting [7]) it was no less than 5000 nM.
The corresponding values for `C=CC(=O)N1[C@H](C)CN(c2ccc3ncnc(Nc4ccc(Oc5ccc6c(c5)ncn6C)c(C)c4F)c3n2)C[C@H]1C` [Example 255] are 795 nM, no less than 10000 nM, 172 nM and no less than 5000 nM.
In the case of `C=CC(=O)N1[C@@H](C)CN(c2ccc3ncnc(Nc4ccc(Oc5ccc6c(c5)ncn6C)c(C)c4F)c3n2)C[C@@H]1C` [Example 256], the IC50 in test [1] (ErbB2 WT enzyme assay) was 57.2 nM; in test [2] (EGFR enzyme assay) it was no less than 10000 nM; in test [3] (setting [6]), 66.9 nM; in test [4] (setting [7]), no less than 5000 nM.
For `C=CC(=O)N1[C@@H](C)CN(c2ccc3ncnc(Nc4cc(C)c(Oc5ccc6c(c5)ncn6C)cc4F)c3n2)C[C@@H]1C` [Example 257] the same measures were 54.2 nM, no less than 10000 nM, 115 nM and no less than 5000 nM.
The corresponding values for `C=CC(=O)N1[C@@H](C)CN(c2ccc3ncnc(Nc4cc(Cl)c(Oc5ccc6c(c5)ncn6C)cc4F)c3n2)C[C@@H]1C` [Example 258] are 10000 nM, no less than 10000 nM, 99.9 nM and no less than 5000 nM.
The corresponding values for `C=CC(=O)N1CCCN(c2ccc3ncnc(Nc4ccc(Oc5ccn6ncnc6c5)c(C)c4F)c3n2)CC1(C)C` [Example 259] are 20.4 nM, no less than 10000 nM, 78.5 nM and 3430 nM.
As to `C=CC(=O)N1CCCN(c2ccc3ncnc(Nc4cc(C)c(Oc5ccn6ncnc6c5)cc4F)c3n2)CC1(C)C` [Example 260], the half-inhibitory concentration (IC50) in test [1] (ErbB2 WT enzyme assay) is 41.5 nM; in test [2] (EGFR enzyme assay), 4510 nM; in test [3] (setting [6]) it was 114 nM; in test [4] (setting [7]), no less than 5000 nM.
In the case of `C=CC(=O)N1[C@H](C)CN(c2ccc3ncnc(Nc4cc(C)c(Oc5ccn6ncnc6c5)cc4F)c3n2)C[C@@H]1C` [Example 263], the IC50 is 148 nM in test [1] (ErbB2 WT enzyme assay), no less than 10000 nM in test [2] (EGFR enzyme assay), 204 nM in test [3] (setting [6]) and no less than 5000 nM in test [4] (setting [7]).
For `C=CC(=O)N1CCN(c2ccc3ncnc(Nc4ccc(Oc5ccn6ncnc6c5)c(C)c4F)c3n2)C[C@@H]1C(C)C` [Example 266] the same measures were 178 nM, no less than 10000 nM, 91.2 nM and no less than 5000 nM.
Take `C=CC(=O)N1CCN(c2ccc3ncnc(Nc4ccc(Oc5cc(F)c6c(c5)ncn6C)c(C)c4)c3n2)CC12CC2` [Example 281]: the IC50 in test [1] (ErbB2 WT enzyme assay) was 10.4 nM; in test [2] (EGFR enzyme assay), 102 nM; in test [3] (setting [6]), 10.9 nM; in test [4] (setting [7]) it was 129 nM.
For `C=CC(=O)N1CCN(c2ccc3ncnc(Nc4ccc(Oc5ccn6ncnc6c5)c(C)c4F)c3n2)C[C@H]1C1CC1` [Example 283] the same measures were 28.2 nM, 4550 nM, 33.6 nM and 1380 nM.
The corresponding values for `C=CC(=O)N1CCN(c2ccc3ncnc(Nc4cc(C)c(Oc5ccn6ncnc6c5)cc4F)c3n2)C[C@@H]1C1CC1` [Example 284] are 24.9 nM, no less than 10000 nM, 67.9 nM and no less than 5000 nM.
As for `C=CC(=O)N1CCN(c2ccc3ncnc(Nc4ccc(Oc5ccn6ncnc6c5)c(C)c4F)c3n2)C[C@@H]1C1CC1` [Example 285], the IC50 in test [1] (ErbB2 WT enzyme assay) is 65.8 nM; in test [2] (EGFR enzyme assay), no less than 10000 nM; in test [3] (setting [6]), 34.1 nM; in test [4] (setting [7]), no less than 5000 nM.
For `C=CC(=O)N1CCN(c2ccc3ncnc(Nc4ccc(Oc5ccn6ncnc6c5)c(Cl)c4F)c3n2)C[C@H]1C(C)C` [Example 291] the same measures were 14.9 nM, 462 nM, 9.5 nM and 276 nM.
The corresponding values for `C=CC(=O)N1CCN(c2ccc3ncnc(Nc4ccc(Oc5ccn6ncnc6c5)c(Cl)c4F)c3n2)C[C@@H]1C(C)C` [Example 293] are 50.5 nM, 2330 nM, 21.2 nM and no less than 5000 nM.
The corresponding values for `C=CC(=O)N1CCN(c2ccc3ncnc(Nc4ccc(Oc5ccn6ncnc6c5)c(C)c4F)c3n2)C[C@@H]1C(C)(C)C` [Example 295] are 153 nM, 1030 nM, 79.3 nM and no less than 5000 nM.
As to `C=CC(=O)N1CC(Cc2ccc3ncnc(Nc4ccc(Oc5ccn6ncnc6c5)c(C)c4F)c3n2)C1` [Example 298], the half-maximal inhibitory concentration (IC50) in test [1] (ErbB2 WT enzyme assay) worked out at 36.5 nM; in test [2] (EGFR enzyme assay), 255 nM; in test [3] (setting [6]), 29.9 nM; in test [4] (setting [7]), 902 nM.
With `C=CC(=O)N1CC2(CCN(c3ccc4ncnc(Nc5ccc(Oc6ccn7ncnc7c6)c(C)c5F)c4n3)C2)C1` [Example 307], the half-maximal inhibitory concentration (IC50) in test [1] (ErbB2 WT enzyme assay) is 104 nM; in test [2] (EGFR enzyme assay) it was no less than 10000 nM; in test [3] (setting [6]), 36.6 nM; in test [4] (setting [7]), no less than 5000 nM.
For `C=CC(=O)N1CCN(c2ccc3ncnc(Nc4ccc(Oc5ccn6ncnc6c5)c(C)c4F)c3n2)CC12CCC2` [Example 308] the same measures were 15.5 nM, 432 nM, 8.4 nM and 110 nM.
For `C=CC(=O)N1CCN(c2ccc3ncnc(Nc4cc(Cl)c(Oc5ccn6ncnc6c5)cc4F)c3n2)C[C@H]1C(C)(C)C` [Example 309] the same measures were 10000 nM, no less than 10000 nM, 16.1 nM and no less than 5000 nM.
The corresponding values for `C=CC(=O)N1CCN(c2ccc3ncnc(Nc4cc(C)c(Oc5ccn6ncnc6c5)cc4F)c3n2)C[C@H]1C(C)(C)C` [Example 310] are 10000 nM, no less than 10000 nM, 33.4 nM and no less than 5000 nM.
As for `C=CC(=O)N1CCN(c2ccc3ncnc(Nc4ccc(Oc5ccn6ncnc6c5)c(Cl)c4F)c3n2)C[C@H]1C(C)(C)C` [Example 311], the concentration for half-maximal inhibition (IC50) in test [1] (ErbB2 WT enzyme assay) was 80.3 nM; in test [2] (EGFR enzyme assay), no less than 10000 nM; in test [3] (setting [6]), 16.2 nM; in test [4] (setting [7]), 562 nM.
The corresponding values for `CC#CC(=O)N1CC[C@@H]2C[C@H]1CN2c1ccc2ncnc(Nc3cc(Cl)c(Oc4ccn5ncnc5c4)cc3F)c2n1` [Example 315] are 119 nM, no less than 10000 nM, 68.8 nM and no less than 5000 nM.
For `CC#CC(=O)N1C[C@@H]2C[C@H]1CN2c1ccc2ncnc(Nc3ccc(Oc4ccn5ncnc5c4)c(Cl)c3F)c2n1` [Example 316] the same measures were 23.1 nM, 1970 nM, 61.6 nM and 1450 nM.
Regarding `C=CC(=O)N1CC[C@@H]2C[C@H]1CN2c1ccc2ncnc(Nc3ccc(Oc4cnc5c(c4)ncn5C)c(C)c3F)c2n1` [Example 317], the IC50 in test [1] (ErbB2 WT enzyme assay) turned out to be 44 nM; in test [2] (EGFR enzyme assay) it was 268 nM; in test [3] (setting [6]), 6.4 nM; in test [4] (setting [7]) it was 117 nM.
For `C=CC(=O)N1C[C@@H]2CC[C@H]1CN2c1ccc2ncnc(Nc3ccc(Oc4cnc5c(c4)ncn5C)c(C)c3F)c2n1` [Example 320] the same measures were 45.6 nM, 436 nM, 9.4 nM and 78.3 nM.
